Values quoted from earlier work in patent publication US12404348B2, “Bifunctional chimeric molecules for labeling of kinases with target binding moieties and methods of use thereof” (The Brigham and Women's Hospital, Inc., priority 2021, dated 2025).
Read-outs that look alike come from different tables or passages of the source. One block for each compound: values may come before it.

Tests used:
[1] = system: NF-κB Pathway; details: U(37 cells)
[2] = target: T1, Recombinant PKCζ (Homo sapiens, UniProt Q05513)
T1 sequence (Q05513 1-592): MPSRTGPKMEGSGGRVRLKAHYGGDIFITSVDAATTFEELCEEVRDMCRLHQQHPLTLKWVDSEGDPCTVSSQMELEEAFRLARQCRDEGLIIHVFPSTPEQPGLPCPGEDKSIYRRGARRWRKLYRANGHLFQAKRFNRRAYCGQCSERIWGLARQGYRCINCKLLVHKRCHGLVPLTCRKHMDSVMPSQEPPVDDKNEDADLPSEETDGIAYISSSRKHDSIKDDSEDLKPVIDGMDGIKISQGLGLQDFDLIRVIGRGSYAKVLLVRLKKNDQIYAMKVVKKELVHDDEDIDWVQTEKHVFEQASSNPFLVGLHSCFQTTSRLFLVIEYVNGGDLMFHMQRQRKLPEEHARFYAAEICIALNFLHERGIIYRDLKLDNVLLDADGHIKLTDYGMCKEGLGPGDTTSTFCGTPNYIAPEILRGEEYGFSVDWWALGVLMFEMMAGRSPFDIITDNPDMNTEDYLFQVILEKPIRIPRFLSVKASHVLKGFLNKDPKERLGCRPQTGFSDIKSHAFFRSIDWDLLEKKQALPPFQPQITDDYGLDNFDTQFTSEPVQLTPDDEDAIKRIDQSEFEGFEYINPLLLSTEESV

[3] = target: T2, PKCl (Homo sapiens, UniProt P41743)
T2 sequence (P41743 1-596): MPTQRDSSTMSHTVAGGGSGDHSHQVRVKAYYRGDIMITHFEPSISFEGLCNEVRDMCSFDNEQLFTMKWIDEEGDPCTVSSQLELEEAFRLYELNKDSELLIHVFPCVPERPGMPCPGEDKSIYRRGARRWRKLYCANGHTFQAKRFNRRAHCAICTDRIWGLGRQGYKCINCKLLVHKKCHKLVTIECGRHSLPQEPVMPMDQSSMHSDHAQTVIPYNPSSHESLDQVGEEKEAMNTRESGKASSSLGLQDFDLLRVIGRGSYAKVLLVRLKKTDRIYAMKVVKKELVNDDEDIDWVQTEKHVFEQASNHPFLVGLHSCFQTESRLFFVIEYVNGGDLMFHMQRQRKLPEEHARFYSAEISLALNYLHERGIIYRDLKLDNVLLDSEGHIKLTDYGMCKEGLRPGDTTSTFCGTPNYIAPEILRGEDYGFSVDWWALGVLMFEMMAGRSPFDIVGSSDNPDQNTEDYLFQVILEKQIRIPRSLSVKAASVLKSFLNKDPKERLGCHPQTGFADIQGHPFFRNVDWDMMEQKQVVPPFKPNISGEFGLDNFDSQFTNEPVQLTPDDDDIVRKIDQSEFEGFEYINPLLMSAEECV

[4] = target: T3, PDK1 (Homo sapiens, UniProt O15530)
T3 sequence (O15530 1-556): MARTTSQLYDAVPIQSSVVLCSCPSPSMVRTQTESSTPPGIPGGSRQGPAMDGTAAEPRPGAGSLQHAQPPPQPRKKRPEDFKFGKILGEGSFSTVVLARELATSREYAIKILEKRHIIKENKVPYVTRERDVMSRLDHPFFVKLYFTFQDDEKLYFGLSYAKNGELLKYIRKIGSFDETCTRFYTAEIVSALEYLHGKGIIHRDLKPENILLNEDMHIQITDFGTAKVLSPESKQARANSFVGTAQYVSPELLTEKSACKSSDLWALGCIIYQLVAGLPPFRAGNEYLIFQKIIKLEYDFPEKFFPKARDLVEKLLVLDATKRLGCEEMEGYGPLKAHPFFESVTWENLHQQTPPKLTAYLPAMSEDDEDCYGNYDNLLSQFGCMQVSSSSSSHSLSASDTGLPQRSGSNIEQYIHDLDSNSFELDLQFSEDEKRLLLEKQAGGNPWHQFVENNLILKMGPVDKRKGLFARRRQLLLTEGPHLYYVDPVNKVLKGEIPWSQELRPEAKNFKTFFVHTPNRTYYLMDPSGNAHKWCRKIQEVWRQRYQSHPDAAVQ

[5] = target: T4, AKT1 (Homo sapiens, UniProt P31749)
T4 sequence (P31749 whole entry): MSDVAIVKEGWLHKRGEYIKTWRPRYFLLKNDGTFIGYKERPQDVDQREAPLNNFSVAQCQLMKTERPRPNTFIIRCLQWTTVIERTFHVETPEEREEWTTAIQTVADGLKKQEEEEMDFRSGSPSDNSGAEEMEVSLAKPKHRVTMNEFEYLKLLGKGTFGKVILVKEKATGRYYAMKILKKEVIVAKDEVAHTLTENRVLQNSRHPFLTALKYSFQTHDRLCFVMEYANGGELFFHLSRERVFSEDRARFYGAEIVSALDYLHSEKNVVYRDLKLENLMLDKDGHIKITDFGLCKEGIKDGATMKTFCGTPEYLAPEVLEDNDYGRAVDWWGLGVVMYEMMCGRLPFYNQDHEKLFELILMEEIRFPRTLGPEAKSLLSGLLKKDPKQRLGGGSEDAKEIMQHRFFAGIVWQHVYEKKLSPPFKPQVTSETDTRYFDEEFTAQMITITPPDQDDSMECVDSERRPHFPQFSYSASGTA

[6] = target: T4, AKT1; remark: listed apart in the source
[7] = target: T3, PDK1; details: for Kd: read-out: ITC Kd
[8] = not given; remark: listed apart in the source

Structure (SMILES): CC(C)(C)C1=NN(c2ccc(F)cc2)C(c2ccc(O)cc2)C1 (centres unmarked) [1b]
NF-κB reporter gene assay % inhibin at 5 μM [1]: 63.8%

Structure (SMILES): CC(C)(C)C1=NN(c2ccc(Br)cc2)C(c2ccc(O)cc2)C1 (centres unmarked) [1c]
NF-κB reporter gene assay % inhibin at 5 μM [1]: 58.4%

Structure (SMILES): Cc1ccc(N2N=C(C(C)(C)C)CC2c2ccc(O)cc2)cc1 (centres unmarked) [1e]
NF-κB reporter gene assay % inhibin at 5 μM [1]: 62.9%

Structure (SMILES): CC(C)c1ccc(N2N=C(C(C)(C)C)CC2c2ccc(O)cc2)cc1 (centres unmarked) [1f]
cell-free assay % inhibin at 62.5 μM [2]: 54.9%

Structure (SMILES): CC(C)(C)C1=NN(c2ccc(C(=O)O)cc2)C(c2ccc(O)cc2)C1 (centres unmarked) [1g]
NF-κB reporter gene assay % inhibin at 5 μM [1]: 40.7% | cell-free assay % inhibin at 62.5 μM [2]: 47.9%

Structure (SMILES): CC(C)(C)C1=NN(c2cccc(Cl)c2)C(c2ccc(O)cc2)C1 (centres unmarked) [1h]
PKCl % inhibn at 20 μM [3]: 43.5% | NF-κB reporter gene assay % inhibin at 5 μM [1]: 64.6%

Structure (SMILES): CC(C)(C)C1=NN(c2cccc(F)c2)C(c2ccc(O)cc2)C1 (centres unmarked) [1i]
PKCl % inhibn at 20 μM [3]: 19.3% | NF-κB reporter gene assay % inhibin at 5 μM [1]: 73.5%

Structure (SMILES): CC(C)(C)C1=NN(c2cccc(C(F)(F)F)c2)C(c2ccc(O)cc2)C1 (centres unmarked) [1j]
PKCl % inhibn at 20 μM [3]: 17.0% | NF-κB reporter gene assay % inhibin at 5 μM [1]: 89.7% | IC50 ([1]; read-out: NF-κB reporter gene assay IC50 ± SD): 2700 ± 320 nM

Structure (SMILES): Cc1cccc(N2N=C(C(C)(C)C)CC2c2ccc(O)cc2)c1 (centres unmarked) [1k]
PKCl % inhibn at 20 μM [3]: 13.9% | NF-κB reporter gene assay % inhibin at 5 μM [1]: 73.7%

Structure (SMILES): CC(C)(C)C1=NN(c2ccccc2Cl)C(c2ccc(O)cc2)C1 (centres unmarked) [1l]
NF-κB reporter gene assay % inhibin at 5 μM [1]: 23.5% | cell-free assay % inhibin at 62.5 μM [2]: 57.1%

Structure (SMILES): CC(C)(C)C1=NN(c2ccccc2F)C(c2ccc(O)cc2)C1 (centres unmarked) [1m]
NF-κB reporter gene assay % inhibin at 5 μM [1]: 48.7% | cell-free assay % inhibin at 62.5 μM [2]: 57.6%

Structure (SMILES): CC(C)(C)C1=NN(c2ccc(Cl)cc2Cl)C(c2ccc(O)cc2)C1 (centres unmarked) [1n]
NF-κB reporter gene assay % inhibin at 5 μM [1]: 50.2% | cell-free assay % inhibin at 62.5 μM [2]: 71.0%

Structure (SMILES): CC(C)(C)C1=NN(c2ccc(F)cc2F)C(c2ccc(O)cc2)C1 (centres unmarked) [1o]
NF-κB reporter gene assay % inhibin at 5 μM [1]: 51.8% | cell-free assay % inhibin at 62.5 μM [2]: 68.0%

Structure (SMILES): Cc1ccc(N2N=C(C(C)(C)C)CC2c2ccc(O)cc2)c(C)c1 (centres unmarked) [1p]
NF-κB reporter gene assay % inhibin at 5 μM [1]: 41.5% | cell-free assay % inhibin at 62.5 μM [2]: 59.9%

Structure (SMILES): CC(C)(C)C1=NN(c2ccc(F)c(F)c2)C(c2ccc(O)cc2)C1 (centres unmarked) [1s]
PKCl % inhibn at 20 μM [3]: 23.7%

Structure (SMILES): Oc1ccc(C2CC(c3ccccc3O)=NN2c2ccc(Cl)cc2)cc1O (centres unmarked) [4g]
PKCl % inhibn at 20 μM [3]: 44.1%

Structure (SMILES): O=C(O)/C=C(/CCc1cccc(Cl)c1)c1ccccc1 [Compound 3Z]
Amax [4]: 2.2 fold

Structure (SMILES): COc1ccccc1Cn1c(-c2cccnc2N)nc2cccnc21 [Compound 3c]
Akt1 ΔTm [5]: no shift

Structure (SMILES): COc1ccccc1Cn1c(-c2cccnc2N)nc2cc(Br)cnc21 [Compound 3d]
IC50 [6]: > 300 µM | Akt1 ΔTm [5]: no shift

Structure (SMILES): CC(C)(C)c1ccc(-n2c(-c3ccncc3)nc3cccnc32)cc1 [Compound 3f]
IC50 [6]: 185 µM | Akt1 ΔTm [5]: no shift

Structure (SMILES): CC(C)(C)c1ccc(-n2c(-c3cccnc3N)nc3cc(Br)cnc32)cc1 [Compound 3g]
IC50 [6]: > 300 µM | Akt1 ΔTm [5]: 0.9 °C

Structure (SMILES): CC(C)(C)c1cccc(-n2c(-c3cccnc3N)nc3cccnc32)c1 [Compound 3h]
IC50 [6]: > 300 µM | Akt1 ΔTm [5]: no shift

Structure (SMILES): O=C(O)/C=C(\CCc1ccc(F)cc1)c1ccccc1 [Compound 4E]
AC50 [4]: n.e. | Amax [4]: n.e.

Structure (SMILES): O=C(O)/C=C(/CCc1ccc(F)cc1)c1ccccc1 [Compound 4Z]
Amax [4]: 3.3 fold

Structure (SMILES): Nc1ncccc1-c1nc2cccnc2n1-c1cccc(CNC(=O)c2ccccc2)c1 [Compound 8g]
Akt1 ΔTm [5]: no shift

Structure (SMILES): Nc1ncccc1-c1nc2cccnc2n1-c1ccc(CNCc2ccccc2)cc1 [Compound 8h]
Akt1 ΔTm [5]: 4.9 °C

Structure (SMILES): O=C(NOC[C@@H](O)CO)c1ccc(F)c(F)c1Nc1ccc(I)cc1F [Compound 35]
Sol (pH 6.5): 255, μg/mL

Structure (SMILES): CC(=O)NC1=NN(c2ccc(Cl)c(Cl)c2)CC1C (centres unmarked) [Compound 45]
In Vivo Plasma Concentration ([8]; 40 min): 5540 ± 233 ng/mL | In Vivo Plasma Concentration ([8]; 180 min): 2540 ± 143 ng/mL

Structure (SMILES): O=C(NOC[C@H](O)CO)c1ccc(F)c(F)c1Nc1ccc(I)cc1F [Mirdametinib]
Sol (pH 6.5): 190 μg/mL

Other lines, results leading:

ITC Ka [7]: 4.78E4 — M^-1 | ITC TΔS [7]: 3.20 kcal/mol | ITC ΔG [7]: -6.32 kcal/mol | ITC ΔH [7]: -3.07 kcal/mol | ITC ΔH/ΔG [7]: 48.6% | Amax [4]: 3.9 fold
Structure (SMILES): O=C(O)/C=C(/CCc1ccc(Br)cc1)c1ccccc1 [Compound 5Z]

Akt1 ΔTm [5]: no shift
Structure (SMILES): NCc1ccc(-n2c(-c3cccnc3)nc3cccnc32)cc1 [Compound 5b]

Akt1 ΔTm [5]: 3.7 °C
Structure (SMILES): CC(=O)Nc1ccc(-n2c(-c3cccnc3N)nc3cccnc32)cc1 [Compound 5c]

Akt1 ΔTm [5]: 4.1 °C
Structure (SMILES): Nc1ccc(-n2c(-c3cccnc3N)nc3cccnc32)cc1 [Compound 5d]

ITC Ka [7]: 9.66E4 — M^-1 | ITC TΔS [7]: 4.79 kcal/mol | ITC ΔG [7]: -6.73 kcal/mol | ITC ΔH [7]: -1.94 kcal/mol | ITC ΔH/ΔG [7]: 28.8% | Kd [7]: 10.4 µM | Amax [4]: 4.4 fold | AC50 ([4]; read-out: AC50): 7.1 µM
Structure (SMILES): O=C(O)/C=C(/CCc1ccc(C(F)(F)F)cc1)c1ccccc1 [Compound 6Z]

ITC Ka [7]: 7.18E4 — M^-1 | ITC TΔS [7]: 2.80 kcal/mol | ITC ΔG [7]: -6.56 kcal/mol | ITC ΔH [7]: -3.71 kcal/mol | ITC ΔH/ΔG [7]: 56.6% | Kd [7]: 13.9 µM | Amax [4]: 2.4 fold | AC50 ([4]; read-out: AC50): 2.8 µM
Structure (SMILES): O=C(O)/C=C(/CCc1ccc(Cl)c(Cl)c1)c1ccccc1 [Compound 7Z]

AC50 [4]: n.e. | Amax [4]: n.e.
Structure (SMILES): O=C(O)/C=C(\CCc1ccc(Cl)cc1Cl)c1ccccc1 [Compound 8E]

ITC Ka [7]: 1.71E5 — M^-1 | ITC TΔS [7]: 4.93 kcal/mol | ITC ΔG [7]: -7.07 kcal/mol | ITC ΔH [7]: -2.08 kcal/mol | ITC ΔH/ΔG [7]: 29.5% | Amax [4]: 2.1 fold | AC50 ([4]; read-out: AC50): 4.7 µM
Structure (SMILES): O=C(O)/C=C(/CCc1ccc(Cl)cc1Cl)c1ccccc1 [Compound 8Z]

AC50 [4]: n.e. | Amax [4]: n.e.
Structure (SMILES): CCc1ccc(CC/C(=C\C(=O)O)c2ccccc2)cc1 [Compound 10E]

Amax [4]: 1.4 fold | AC50 ([4]; read-out: AC50): > 30 µM
Structure (SMILES): CCc1ccc(CC/C(=C/C(=O)O)c2ccccc2)cc1 [Compound 10Z]

Amax [4]: n.e.
Structure (SMILES): O=C(O)/C=C(\CCc1ccc(-c2ccccc2)cc1)c1ccccc1 [Compound 11E]

Amax [4]: 3.2 fold
Structure (SMILES): O=C(O)/C=C(/CCc1ccc(-c2ccccc2)cc1)c1ccccc1 [Compound 11Z]

ITC Ka [7]: 7.26E4 — M^-1 | ITC TΔS [7]: 1.96 kcal/mol | ITC ΔG [7]: -6.67 kcal/mol | ITC ΔH [7]: -4.56 kcal/mol | ITC ΔH/ΔG [7]: 68.3% | Amax [4]: 3.5 fold
Structure (SMILES): O=C(O)/C=C(/CCc1ccc2ccccc2c1)c1ccccc1 [Compound 12Z]

ITC Ka [7]: 9.63E4 — M^-1 | ITC TΔS [7]: 2.60 kcal/mol | ITC ΔG [7]: -6.73 kcal/mol | ITC ΔH [7]: -4.09 kcal/mol | ITC ΔH/ΔG [7]: 60.8% | Amax [4]: 3.1 fold
Structure (SMILES): O=C(O)/C=C(/CCc1c[nH]c2ccccc12)c1ccccc1 [Compound 13Z]
